# Measured values reported in patent publication US20260125357A1, “LACTATE ENHANCING COMPOUNDS AND USES THEREOF” (GLIAPHARM SA, priority 2022, published 2026).
# What was measured:
# primary astrocytes = assay: MTT mitochondrial activity assay in primary astrocytes; type: cell-based, mouse; conditions: different concentrations, after 1.5 h or 24 h
# Experimental: Primary cultures of cerebrocortical astrocytes were obtained from 1 to 2-day-old OF1 mouse pups (Charles River Laboratories). Briefly, cortices were isolated and minced in small pieces under a dissecting microscope. The cells were incubated for 30 min at 37° C. in a solution containing 20 U/ml papain, 1 mM L-cysteine and 10 kU/ml DNase I. After dissociation, papain activity was stopped by the addition of fetal calf serum (FCS). Single-cell suspension was then obtained by mechanical dissociation, which consisted in cells trituration in a DMEM D7777 medium supplemented with 44 mm NaHCO3, 10 ml/L antibiotic/antimycotic solution and 10% FCS. The cells were seeded at an average density of ˜10′000 cells/cm^2 on poly-D-lysine coated 96- or 12-well culture plates, depending on their use, and grown in DMEM D7777 medium supplemented with 44 mm NaHCO3, 10 ml/L antibiotic/antimycotic solution and 10% FCS at 37° C. in a humidified atmosphere containing 5% CO2/95% air. Culture medium was renewed twice a week. Cells were stimulated and harvested between DIV14 and DIV17, when confluence and cell growth were optimal.
# To monitor mitochondrial activity in astrocytes, which is linked to the metabolic process of glycolysis and production of lactate, astrocytes in 96-well plates were stimulated for 24 h (37° C. 5% CO2/95% air) with the compounds of the invention ranging from 10 nM to 10 μM.
# After stimulation, 5 mg/ml thiazol blue tetrazolium bromide (MTT) in D5030 medium complemented with 5 mM D-glucose and 44 mM sodium bicarbonate (pH 7.2) was added to each well, and cells were incubated for 4 h at 37° C. (5% CO2). The medium was then removed and the amount of reduced MTT, i.e formazan, solubilized in DMSO (50 μl/well) was determined using a spectrophotometer (absorbance of 570 nm).
# The mitochondrial activity was monitored in MTT colorimetric assay in primary astrocytes treated with Compounds (1), (2), (3), (4) (5), (9) and (10) at different concentrations after 1.5 h (FIG. 2 A, B, D, E, F, C, H, respectively) or 24 h (FIG. 2 H, I, K, L, M, J, N, respectively).
# APOE4(+) transgenic mice = assay: Morris Water Maze memory in APOE4(+) mouse model of Alzheimer's disease; type: in vivo; conditions: 30 mg/kg, 7 days after training
# Description: Mouse models carrying the APOE4 human allele have a decrease in metabolic gene expression and cerebral glucose uptake compared to APOE3-expressing model (Williams et al., 2020, neurobiol dis, 136:104742; Lin et al., 2015, J Cereb Blood Flow Metabl, 37(1):217-226; Alata et al., 2015, J Cereb Blood Flow Metab, 35(1):86-94. These physiological perturbations induce a brain hypometabolism, which recapitulates brain metabolic status observed in AD carriers of APOE4 allele. Male and female APOE4(+) and APOE3(+) (controls) transgenic mice are used at 3 months of age. Memory of APOE3(+) mice treated with Veh and APOE4 (+) mice treated with Veh or compound (2) at 10 mg/kg and 30 mg/kg is tested in the Morris Water Maze, as described below. Treatment is administered at each day of training, 30 minutes before the first training session. No treatment is administered during memory retention test.
# (§1) Morris Water Maze (MWM), a well-established spatial and contextual memory test, will be used. […] A number of parameters including the latency to find the platform, time spent around the platform, path efficiency, % time spent in each quadrant is recorded, using automated tracking software (Ethovision). The type of exploration (direct, random, scan of the area) is also recorded. […]
# [1] = tested on: mice injected with streptozotocin; assay: Morris Water Maze in streptozotocin ICV injection model of Alzheimer's disease; type: in vivo, mouse; conditions: 30 mg/kg, 1 Day after training, vs Veh
# Experimental: (§2) Craniotomies are performed on isoflurane-anesthetized mice for injections of Veh or streptozotocin in cerebral ventricles (coordinates: −0.5 mm (to bregma), lateral+/−1.0 mm (to midline), ventral −2.2 mm (to dura)) (Kelliny S. et al., Molecular Neurobiology, 2021). A solution composed of Veh (0.9% NaCl) or streptozotocin (5 mg/kg) prepared in 1 μl artificial cerebrospinal fluid solution (aCSF, 20 mM citrate buffer, pH 4.2) is injected in both cerebral ventricles using Hamilton micro syringe at a constant speed of 100-200 nl/min. After injection, skin of the skull is sutured, and mice is monitored closely and receives analgesic treatment for at least 4 days. After mice had fully recovered from surgery, memory tests including Morris Water Maze (MWM), Inhibitory Avoidance (IA) and Novel Object Recognition (NOR), as described below, are performed. […]
# as §1
# [2] = tested on: mice injected with streptozotocin; assay: Inhibitory Avoidance in streptozotocin ICV injection model of Alzheimer's disease; type: in vivo, mouse; conditions: 1 day after training, vs Veh
# Experimental: as §2
# Inhibitory avoidance (IA) test is a well-established memory paradigm in rodents that measures contextual memory associated with a mild electrical footshock in a specific context (the dark compartment of the IA chamber). […] Memory retention was measured at 24 h after training by placing the mouse back into the lit compartment and recording its latency (in seconds) to enter the dark compartment. […]
compound,measurement,setting,value
"COc1cc2ccnc(Nc3ccc(S(C)(=O)=O)cc3)c2cc1OC [Compound 2, 6,7-dimethoxy-N-(4-methylsulfonylphenyl)isoquinolin-1-amine]",mitochondrial activity (MTT colorimetric assay),primary astrocytes,none of the selected compounds had direct effect on mitochondrial activity
same,memory in the Morris Water Maze,APOE4(+) transgenic mice,significant increase of memory
same,memory in the Morris Water Maze,[1],significantly higher
same,memory in the Inhibitory Avoidance,[2]; 10 mg/kg,significantly higher
same,memory in the Inhibitory Avoidance,[2]; 30 mg/kg,significantly higher
